From patent US20230277553A1, “THERAPEUTIC COMPOSITION OF CURE-PRO COMPOUNDS FOR TARGETED DEGRADATION OF BET DOMAIN PROTEINS, AND METHODS OF MAKING AND USAGE” (CORNELL UNIVERSITY, priority 2020, published 2023)
“Also recorded” adds a separate entry of the source.

Experiments:
Format in all cases: cell-based
[1] = target: T1, BRD4 (Homo sapiens, UniProt O60885); experiment: CURE-PRO-mediated BRD4 degradation with VHL ligands, Western blot, MCF7 cells; set-up: endogenous in cells; conditions: MCF7, 24 h, 1:1 with 8305, 100 nM-10 μM
Procedure: (§1) All cell lines were purchased from ATCC or DSMZ and grown at 37° C. with 5% CO2. Human HeLa cells were cultured in complete growth medium (Dulbecco's modified Eagle's medium (DMEM) supplemented with 10% FBS); MCF7 cells were cultured in complete growth medium (Dulbecco's modified Eagle's medium (DMEM) supplemented with 10% FBS and 0.01 mg/ml human recombinant insulin (Sigma Aldrich); Namalwa and MOLM-13 cells were cultured in complete growth medium (RPMI 1640 medium supplemented with 10% FBS); MV-4-11 were cultured in complete growth medium (Iscove's Modified Dulbecco's medium, supplemented with 10% FBS); HCT116 cells were cultured in complete growth medium (McCoy's 5a Medium supplemented with 10% FBS). For cellular degradation of BRD4 studies, cells were seeded in a 12-well plate at 70-80% confluency, allowed to attach overnight, and incubated with the indicated compounds for the indicated time. When indicated, a 15-minute pretreatment with 10 μM pomalidomide, 10 μM VHL298, 10 μM Nutlin3a, 1 μM MG-132 or 1 μM Carfilzomib was performed before the addition of CURE-PROs. For washout studies, after CURE-PRO treatment, media was aspirated and incubated with complete medium for the indicated time before lysis.
HeLa, MCF7, or HCT116 cells (2.5-3×10^6) were treated for 24 hours with the indicated compounds solubilized in DMSO. The cells were washed in ice-cold PBS and were then lysed in RIPA lysis buffer (150 mM NaCl, 5 mM EDTA, 1% NP-40, 0.5% sodium deoxycholate, 0.1% SDS, 50 mM Tris, pH 8.0.) with Roche protease inhibitor complete cocktail and phosphatase inhibitors (10 mM sodium fluoride, 10 mM sodium pyrophosphate, 1 mM sodium orthovanadate and 20 mM β-glycerophosphate). The total protein concentrations were determined by Bradford Protein Assay and 10-20 μg of protein was loaded onto 4-15% Tris-Glycine gradient gels (Biorad). After standard gel electrophoresis, the separated proteins were transferred to PVDF membrane by wet transfer. The immunoblots were then blocked for 1 hour in 5% skim milk in TBST or 5% BSA in TBST, according to manufacturer's instructions, before an overnight incubation at 4° C. with indicated antibodies and membranes. Membranes were then incubated with the appropriate horseradish peroxidase-conjugated secondary antibodies (1:5,000 dilution) for 1 h at room temperature and the bands were visualized using the Clarity Max Western ECL Substrate (Biorad) and the ChemiDoc Imaging System (Biorad). Signal was detected with ECL Western Blotting Substrate (Pierce) and X-ray film processed with a Konica SRX-101 X-ray film processor or captured by Bio-Rad's Chemidoc Imaging system.
MCF7 cells (3×10^6) were treated for 24 h with the compounds solubilized in DMSO. Compounds were added at 100 nM-10 μM. […]

[2] = system: caspase 3/7; experiment: Caspase-Glo 3/7 assay, Namalwa cells; conditions: 24 hours, 1:1 with 8047
Procedure: Caspase-glo® assay (Promega) was conducted following the manufacturer's recommendations. Cells were seeded at a density of 5000 cells/well in a white 96 well plates (Corning, #3917) in a total volume of 100 μl with respective monomers, combinations of BRD ligands together with E3 ligase ligands or vehicle control treatment. After a 24 h incubation, 100 μl of the […] substrate was added per well and luminescence was read on a Spectramax M5 (Molecular Devices).
Namalwa cells (5×104) were treated for 24 hours with the compounds solubilized in DMSO. FIG. 57 is a bar graph depiction of fold increase of apoptosis assessed via caspase 3/7 activity using the Caspase-glo assay (Promega) described above.
Molm-13 (FIG. 76A) or Namalwa (FIG. 76B) cells (5×10^4) were treated for 24 hours with the compounds solubilized in DMSO in white 96 well plates (10 nM-10 μM solubilized in DMSO). FIG. 76 is a bar graph depiction of fold increase of apoptosis assessed via caspase 3/7 activity using the Caspase-glo assay (Promega) described above.

[3] = target: T1, BRD4; experiment: Summary of BRD4 degradation by CURE-PRO pairs, estimated from Western Blot or WES (Proteinsimple); set-up: endogenous in cells; conditions: Table 1, CRBN ligand
Description: A black check mark indicates efficacy of 30% to 70% or higher protein degradation.

[4] = target: T1, BRD4; experiment: CURE-PRO-mediated BRD4 degradation, Western blot, HeLa cells; set-up: endogenous in cells; host or cells: HeLa; conditions: 24 h
Summary of the method: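 HeLa cells treated 24 h with compounds in DMSO (1-10 μM, 10 μM or 100 μM each; paired monomers combined 1:1), optional 15-min pretreatment with pomalidomide, VHL298, Nutlin3a (10 μM) or MG-132/carfilzomib (1 μM). RIPA lysates, 10-20 μg protein immunoblotted for BRD4 with β-actin, ECL detection.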

[5] = target: T1, BRD4; experiment: CURE-PRO-mediated BRD4 degradation, WES (ProteinSimple), HeLa cells; set-up: endogenous in cells; host or cells: HeLa
Procedure: as §1
Anti-BRD4 (13440, 1:1,000 dilution for Western Blot and 1:25 dilution for ProteinSimple); Anti-BRD2 (5848 1:1,000 dilution for Western Blot and 1:25 dilution for ProteinSimple); β-Actin (3700, 1:2,000 dilution for Western Blot), β-Actin (4970, 1:50 dilution for ProteinSimple) anti-mouse IgG-HRP, and anti-rabbit IgG-HRP antibodies were purchased Cell Signaling Technology. Anti-GAPDH (600-401-A33, 1:100 dilution for ProteinSimple) was purchased from Rockland Immunochemicals, Inc. Anti-BRD3 (sc-81202, 1:200 dilution for Western Blot) was purchased from Santa Cruz Biotechnology.
WES Simple analysis was performed on WES system (ProteinSimple-Biotechne) according to the manufacturer's instructions. Total protein concentrations of cell lysates were determined by the Pierce BCA kit (Thermo Fisher). 3 μL of 0.3 μg/μL of the protein lysate was loaded onto a 12- to 230-kDa WES assay plate (ProteinSimple) where 300 nL sample was withdrawn through a capillary, subjected to electrophoretic separation of proteins by size, and followed by the simultaneous, HRP-based detection of proteins using the Anti-Rabbit Detection Module (Proteinsimple: #DM-001). The electropherograms were checked then the automatic peak detection was manually corrected if it was required.
HeLa cells (2.5×10^6) were treated for 4-24 hours with the compounds solubilized in DMSO. After 4 hours, indicated points were washed and cells were left in full growth media. Compounds were added at 10 μM each. […]

COc1ccc2c(c1)C(c1ccc(Cl)cc1)=N[C@@H](CC(=O)NCc1ccc(B(O)O)cc1)c1nnc(C)n1-2 [BRD-E9, (4-((2-((4S)-6-(4-chlorophenyl)-8-methoxy-1-methyl-4H-benzo[f][1,2,4]triazolo[4,3-a][1,4]diazepin-4-yl)acetamido)methyl)phenyl)boronic acid]
BRD4 degradation, with VHL ligand 8305 (Western blot) [1]: there is degradation of BRD4

CCNC(=O)C[C@@H]1N=C(c2ccc(Sc3cccc(B(O)O)c3)cc2)c2cc(OC)ccc2-n2c(C)nnc21 [BRD-E52, (3-((4-((4S)-4-(2-(ethylamino)-2-oxoethyl)-8-methoxy-1-methyl-4H-benzo[f][1,2,4]triazolo[4,3-a][1,4]diazepin-6-yl)phenyl)thio)phenyl)boronic acid]
Caspase 3/7 activation, co-dosed with CRBN ligand 8047 [2]: demonstrates activation of caspase 3/7; also recorded: marked caspase activation | Degradation of BRD4 in combination with CRBN ligand [drawing 371] ([3]; second drawing (8047)): ✓ (A black check mark indicates efficacy of 30% to 70% or higher protein degradation) | Degradation of BRD4 in combination with CRBN ligand [drawing 372] ([3]; third drawing (8066)): ✓ (A black check mark indicates efficacy of 30% to 70% or higher protein degradation) | BRD4 degradation, BRD ligand with pomalidomide (no 8047) ([4]; 10 μM): failed to induce BRD4 degradation | BRD4 degradation, co-treatment with CRBN ligand 8047 ([4]; 1:1 with 8047, 10 μM each, Western blot): causes degradation of BRD4 | BRD4 degradation, co-dosing with CRBN ligand 8047 (WES) ([5]; 10 μM each, 4-24 h with washout after 4 h, or 100 nM-10 μM): marked BRD4 degradation after 4h with sustained degradation for up to 8h after drugs are washed out | Concentration from which BRD4 protein expression decreases, with 8047 (WES) ([5]; 24 h, tested 100 nM-10 μM each): ≥ 300 nM
